Assay results from ChEMBL document CHEMBL1955819, “Ketoolivosyl-tetracenomycin C: a new ketosugar bearing tetracenomycin reveals new insight into the substrate flexibility of glycosyltransferase ElmGT” (2012).
Active and inactive are the calls of the source. No cut-off for these calls is given here.

Key:
Streptomyces prasinus = assay: Antimicrobial activity against Streptomyces prasinus at 1 mg/mL by disc diffusion assay; assay type: functional; details: read-out: DIZ
Rhizomucor miehei = assay: Antimicrobial activity against Mucor miehei at 1 mg/mL by disc diffusion assay; assay type: functional, organism-based
Escherichia coli = assay: Antimicrobial activity against Escherichia coli XL1-blue at 1 mg/mL by disc diffusion assay; assay type: functional, organism-based

Row | Structure (SMILES) | zone of inhibition at 1000 µg/mL (Streptomyces prasinus) [mm] | Activity (Rhizomucor miehei) | Activity (Escherichia coli)
1 | COC(=O)c1c(O[C@@H]2O[C@@H](C)[C@H](OC)[C@@H](OC)[C@H]2OC)cc2cc3c(c(O)c2c1C)C(=O)[C@]1(OC)C(=O)C=C(OC)[C@@H](O)[C@]1(O)C3=O [ELLORAMYCIN] | 25 |  | 
2 | COC(=O)c1c(O[C@H]2C[C@H](O)C(=O)[C@H](C)O2)cc2cc3c(c(O)c2c1C)C(=O)[C@]1(O)C(=O)C=C(OC)[C@@H](O)[C@]1(O)C3=O | 12 | inactive | inactive
